Assay [1] relates to smooth muscle actin (SMA) in fibroblasts. Put plainly: TGF-β induced smooth muscle actin (SMA) in fibroblasts (Western blot, immunohistochemistry). Format: cell-based. As to conditions: TGF-β stimulated fibroblasts. The source says: Scar contracture is a painful aspect of hypertrophic scarring due to increased SMA in the fibroblasts. During the inflammatory phase of wound healing, the cytokine transforming growth factor β (TGF-β) is secreted and can activate fibroblasts to produce SMA.

Assay [2] concerns HLF cells (fibroblasts). Put plainly: in vitro gel contraction assay. The assay is classed as cell-based. Particulars: for TGF-β induced fibroblast contracture (gel contraction): TGF-β + RXD, 48 hour incubation. The procedure:
Evaluation of fibroblasts contractility was performed as previously described by […] et al (Bio-protocol 8(18): e3021, 2018). Briefly, HLF cells are resuspended in 1 mg/ml collagen and then pipetted into 24 well plates. Collagen is allowed to solidify for 30 minutes at room temperature. Media (500 μl) is then added to each of the wells and the gels are dissociated from the walls of the well. Gels are treated and allowed to incubate for 48 hours at 37° C. and 5% CO2. After the 48 hour incubation, gels are stained with crystal violet stain in order to better visualize contraction. Images are analyzed using Image J software and the fold change compared to a no cell control is determined.

For assay [3], the system named is incisional wound in C57bl/6 mice. Put plainly: rodent incisional wound model, incision sutured with silk imbedded with drug. The assay is classed as in vivo, mouse. An excerpt:
As there are no murine models for hypertrophic or keloid scarring, the inventors relied on a classic rodent incisional wound model consisting of a longitudinal para-vertebral incision 1-2 cm long through the entire thickness of the skin and cutaneous muscle. Wounds (WD) and size matched pieces of dorsal dermis (CTR) were excised and processed for light and polarized light microscopy: fixation, embedding, sectioning and stained with hematoxylin-eosin (inflammatory cells) and Gomori Trichrome (collagen staining), tensile strength measurements and qPCR.
In some experiments, a drug was delivered locally and directly to the wound. In some embodiments, the drug was impregnated in the wound closure material, silk suture. In some experiments, the drug was eluted into the wound during wound healing leading to closure and scar formation. Wound healing was monitored over 14 days.
Wounds (WD) and size matched pieces of dorsal dermis (CTR) were excised and processed for light microscopy: fixation, embedding, sectioning and stained with hematoxylin-eosin (inflammatory cells) and Gomori Trichrome (collagen staining).
Using wild type C57bl/6 mice, wound healing experiments were next performed where the incision was sutured with silk imbedded with ketotifen, a mast cell stabilizer. This way the drug could be delivered continuously and locally during wound healing.

The mark [4] stands for this setting: 14 days post-incision, C57bl/6 mice, ketotifen-impregnated silk vs untreated silk.

Results on two compounds are retold here after patent publication US20210299116A1, “METHODS FOR REDUCING ABNORMAL SCAR FORMATION” (CORNELL UNIVERSITY, priority 2018, published 2021).

Molecules are shown by their SMILES. “Also recorded” adds a separate entry of the source.

`Cc1nc(C(=O)NCC(=O)O)c(O)c2ccc(Oc3ccccc3)cc12` [RXD, N-[(4-hydroxy-1-methyl-7-phenoxyisoquinolin-3-yl)carbonyl]glycine]: the “SMA staining of fibroblasts (immunohistochemistry)” value in assay [1] was “inhibited”. In addition, the figures for the “abundance of TGF-β induced SMA in fibroblasts (Western blot)” value in assay [1] and in assay [1] (listed as Roxadustat) were “inhibited” and “significantly reduces”, respectively. In addition, in assay [2] (RXD added alone, vs control), the “fibroblast gel contraction, change from control” value is listed as “significant changes”. The “TGF-β induced fibroblast contracture (gel contraction)” value is recorded as “inhibited” in assay [2] and “significantly reduces” in assay [2] (listed as Roxadustat).
For `CN1CCC(=C2c3ccccc3CC(=O)c3sccc32)CC1` [ketotifen], the “relative abundance of newly synthesized collagen III mRNA in excised wound scar (q-PCR)” value in assay [3] (14-day, drug group compared to untreated) is “significantly less”. For the same compound, in assay [3] (7 days post-incision, C57bl/6 mice, ketotifen eluted from silk suture vs untreated wound), the “inflammatory response to the incisional wound (immune cells in H&E stained scar)” value was “lessens the inflammatory response”. Further, in assay [3] (setting [4]), the “scar collagen content (Gomori trichrome stain)” value is listed as “decreases” and the “scar width (Gomori trichrome stain)” value is “significantly less; also recorded: decreases”. Besides, in assay [3] (14 days post-incision, ketotifen-treated vs untreated mice), the “tensile strength of the scar (peak tension, tensitometry)” value is listed as “not affected”. Moreover, the “newly synthesized collagen III in wound scar (birefringence microscopy)” value in assay [3] (ketotifen eluted from suture vs suture alone) is given as “less newly synthesized collagen III; also recorded: decreases newly synthesized collagen (III)”.
